Measured values published in ChEMBL document CHEMBL1201862, “PubChem BioAssay data set” (2004).
Where “and” joins values, the source holds several entries; their conditions need not be identical. Identical values can stand only once.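 Tested at 5 concentrations; 48 h exposure; 96-well plates; endpoints linearly interpolated, else capped at highest concentration. GI50 is the concentration that inhibits growth by half.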 Calls of active or inactive are those of the source. Cut-off read from the data, not from the text of the source: active = GI50 up to about 1.1 µM and inactive = higher.

Tests used:
Assay in all cases: NCI-60 cell line screen, 48 h
786-0 = tested on: 786-0
A498 = tested on: A498
A549 = tested on: A549
ACHN = tested on: ACHN
CAKI-1 = tested on: CAKI-1
CCRF-CEM = tested on: CCRF-CEM
COLO 205 = tested on: COLO 205
DU-145 = tested on: DU-145
EKVX = tested on: EKVX
HCT-116 = tested on: HCT-116
HCT-15 = tested on: HCT-15
HL-60 = tested on: HL-60
HOP-62 = tested on: HOP-62
HOP-92 = tested on: HOP-92
HT-29 = tested on: HT-29
Hs-578T = tested on: Hs-578T
IGROV-1 = tested on: IGROV-1
K562 = tested on: K562
KM12 = tested on: KM12
LOX IMVI = tested on: LOX IMVI
M14 = tested on: M14
MCF7 = tested on: MCF7
MDA-MB-231 = tested on: MDA-MB-231
MDA-MB-435 = tested on: MDA-MB-435
MDA-N = tested on: MDA-N
MOLT-4 = tested on: MOLT-4
Malme-3M = tested on: Malme-3M
NCI-H226 = tested on: NCI-H226
NCI-H23 = tested on: NCI-H23
NCI-H460 = tested on: NCI-H460
NCI-H522 = tested on: NCI-H522
NCI/ADR-RES = tested on: NCI/ADR-RES
OVCAR-3 = tested on: OVCAR-3
OVCAR-4 = tested on: OVCAR-4
OVCAR-5 = tested on: OVCAR-5
OVCAR-8 = tested on: OVCAR-8
PC-3 = tested on: PC-3
RPMI-8226 = tested on: RPMI-8226
RXF 393 = tested on: RXF 393
SF-268 = tested on: SF-268
SF-295 = tested on: SF-295
SF-539 = tested on: SF-539
SK-MEL-28 = tested on: SK-MEL-28
SK-MEL-2 = tested on: SK-MEL-2
SK-MEL-5 = tested on: SK-MEL-5
SK-OV-3 = tested on: SK-OV-3
SN12C = tested on: SN12C
SNB-19 = tested on: SNB-19
SNB-75 = tested on: SNB-75
SR = tested on: SR
SW-620 = tested on: SW-620
TK-10 = tested on: TK-10
U-251 = tested on: U-251
UACC-257 = tested on: UACC-257
UACC-62 = tested on: UACC-62
HCC 2998 = tested on: HCC 2998

For `COC(=S)OC1CC(n2cnc3c(=O)[nH]cnc32)OC1CO[Si](C)(C)C(C)(C)C` (centres undefined), the GI50 (786-0) was > 100 µM (inactive), the GI50 (A498) was > 100 µM (inactive) and the GI50 (A549) was > 100 µM (inactive). For the same compound, the GI50 (ACHN) was > 100 µM (inactive), the GI50 (CAKI-1) was > 100 µM (inactive) and the GI50 (CCRF-CEM) was > 100 µM (inactive). The GI50 (COLO 205) was > 100 µM (inactive), the GI50 (DU-145) was > 100 µM (inactive) and the GI50 (EKVX) was > 100 µM (inactive). For the same compound, the GI50 (HCT-116) was > 100 µM (inactive), the GI50 (HCT-15) was greater than 100 µM and the GI50 (HL-60) was > 100 µM (inactive). The GI50 (HOP-62) was > 100 µM (inactive), the GI50 (HOP-92) was > 100 µM (inactive) and the GI50 (HT-29) was > 100 µM (inactive). The GI50 (Hs-578T) was > 100 µM (inactive), the GI50 (IGROV-1) was > 100 µM (inactive) and the GI50 (K562) was > 100 µM (inactive). For the same compound, the GI50 (KM12) was > 100 µM (inactive), the GI50 (LOX IMVI) was > 100 µM (inactive) and the GI50 (M14) was > 100 µM (inactive). The GI50 (MCF7) was > 100 µM (inactive), the GI50 (MDA-MB-231) was > 100 µM (inactive) and the GI50 (MDA-MB-435) was > 100 µM (inactive). The GI50 (MDA-N) was > 100 µM (inactive), the GI50 (MOLT-4) was > 100 µM (inactive) and the GI50 (Malme-3M) was > 100 µM (inactive). The GI50 (NCI-H226) was > 100 µM (inactive), the GI50 (NCI-H23) was > 100 µM (inactive) and the GI50 (NCI-H460) was > 100 µM (inactive). For the same compound, the GI50 (NCI-H522) was > 100 µM (inactive), the GI50 (NCI/ADR-RES) was > 100 µM (inactive) and the GI50 (OVCAR-3) was > 100 µM (inactive). The GI50 (OVCAR-4) was > 100 µM (inactive), the GI50 (OVCAR-5) was > 100 µM (inactive) and the GI50 (OVCAR-8) was > 100 µM (inactive). The GI50 (PC-3) was > 100 µM (inactive), the GI50 (RPMI-8226) was > 100 µM (inactive) and the GI50 (RXF 393) was > 100 µM (inactive). The GI50 (SF-268) was > 100 µM (inactive), the GI50 (SF-295) was > 100 µM (inactive) and the GI50 (SF-539) was > 100 µM (inactive). The GI50 (SK-MEL-28) was > 100 µM (inactive), the GI50 (SK-MEL-2) was > 100 µM (inactive) and the GI50 (SK-MEL-5) was > 100 µM (inactive). The GI50 (SK-OV-3) was > 100 µM (inactive), the GI50 (SN12C) was > 100 µM (inactive) and the GI50 (SNB-19) was > 100 µM (inactive). The GI50 (SNB-75) was > 100 µM (inactive), the GI50 (SR) was > 100 µM (inactive) and the GI50 (SW-620) was > 100 µM (inactive). The GI50 (TK-10) was > 100 µM (inactive), the GI50 (U-251) was > 100 µM (inactive) and the GI50 (UACC-257) was > 100 µM (inactive). The GI50 (UACC-62) was > 100 µM (inactive).
In the case of `CC(Nc1n[nH]c(=O)c2c1nnn2Cc1ccccc1)c1ccccc1` (centres undefined), the GI50 (786-0) is reported as 16.5 µM (inactive), the GI50 (A549) is reported as 23.8 µM (inactive) and 36 µM (inactive) and the GI50 (ACHN) is reported as 52.7 µM (inactive). For the same compound, the GI50 (CAKI-1) was 18.6 µM (inactive) and 34.1 µM (inactive), the GI50 (CCRF-CEM) was > 100 µM (inactive) and the GI50 (COLO 205) was 77.4 µM (inactive) and 96.2 µM (inactive). For the same compound, the GI50 (DU-145) was > 100 µM (inactive), the GI50 (EKVX) was > 100 µM (inactive) and the GI50 (HCC 2998) was > 100 µM (inactive). The GI50 (HCT-116) was 24.3 µM (inactive) and 27.5 µM (inactive), the GI50 (HCT-15) was greater than 100 µM and the GI50 (HOP-92) was 22.8 µM (inactive) and 23.9 µM (inactive). The GI50 (HT-29) was 12.2 µM (inactive), the GI50 (KM12) was > 100 µM (inactive) and the GI50 (M14) was > 100 µM (inactive). For the same compound, the GI50 (MCF7) was 31.9 µM (inactive) and 29.1 µM (inactive), the GI50 (MDA-MB-435) was 17.3 µM (inactive) and 22.3 µM (inactive) and the GI50 (MOLT-4) was 56.9 µM (inactive) and 37.2 µM (inactive). For the same compound, the GI50 (NCI/ADR-RES) was > 100 µM (inactive) and 57.8 µM (inactive), the GI50 (OVCAR-3) was > 100 µM (inactive) and 53.5 µM (inactive) and the GI50 (OVCAR-5) was > 100 µM (inactive). For the same compound, the GI50 (RPMI-8226) was 72.8 µM (inactive), the GI50 (SF-295) was 34.4 µM (inactive) and 17.8 µM (inactive) and the GI50 (SK-MEL-28) was > 100 µM (inactive) and 55.1 µM (inactive). For the same compound, the GI50 (SK-MEL-5) was 18.8 µM (inactive) and 21.5 µM (inactive), the GI50 (SN12C) was > 100 µM (inactive) and the GI50 (U-251) was 26.1 µM (inactive) and 37.1 µM (inactive). For the same compound, the GI50 (UACC-257) was 50.6 µM (inactive) and 71 µM (inactive).
In the case of `CC(C)(/N=N/C(C)(C)C1=NCCN1)C1=NCCN1`, the GI50 (A549) is reported as > 100 µM (inactive), the GI50 (CAKI-1) is reported as > 100 µM (inactive) and the GI50 (HOP-92) is reported as > 100 µM (inactive). The GI50 (NCI-H23) was > 100 µM (inactive), the GI50 (SK-OV-3) was > 100 µM (inactive) and the GI50 (TK-10) was > 100 µM (inactive).
